Data set [1] deals with T1, Nuclear receptor ROR-gamma (Homo sapiens, UniProt P51449).
T1 sequence (P51449 whole entry): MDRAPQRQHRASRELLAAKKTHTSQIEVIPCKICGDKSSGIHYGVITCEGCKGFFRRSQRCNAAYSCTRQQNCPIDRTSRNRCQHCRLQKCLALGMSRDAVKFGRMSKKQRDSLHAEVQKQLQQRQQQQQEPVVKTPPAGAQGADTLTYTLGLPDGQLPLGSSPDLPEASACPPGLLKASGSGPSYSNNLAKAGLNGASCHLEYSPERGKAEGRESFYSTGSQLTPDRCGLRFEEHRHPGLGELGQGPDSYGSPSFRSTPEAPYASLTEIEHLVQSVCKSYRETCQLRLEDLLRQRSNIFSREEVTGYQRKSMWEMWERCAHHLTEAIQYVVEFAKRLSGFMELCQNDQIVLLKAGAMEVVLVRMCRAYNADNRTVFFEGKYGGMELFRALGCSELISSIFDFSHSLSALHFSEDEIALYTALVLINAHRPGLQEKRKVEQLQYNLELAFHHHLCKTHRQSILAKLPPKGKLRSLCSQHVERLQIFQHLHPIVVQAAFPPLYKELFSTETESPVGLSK
In words: Inverse agonist activity at RORgamma in human CD4+ T cells assessed as inhibition of IL-17A release after 4 days by HTRF assay. It is filed as cell-based, T-cell. On the technique in general: In TR-FRET formats the signal depends on donor and acceptor labels being close together.

Data set [2] has as its target T1, Nuclear receptor ROR-gamma.
Description: Inverse agonist activity at GAL4 DBD-fused RORgammat LBD (unknown origin) expressed in HG5LN cells after 18 hrs by luciferase reporter gene assay
For data set [3], the target named is T2, Retinoic acid receptor gamma (Homo sapiens, UniProt P13631).
T2 sequence (P13631 whole entry): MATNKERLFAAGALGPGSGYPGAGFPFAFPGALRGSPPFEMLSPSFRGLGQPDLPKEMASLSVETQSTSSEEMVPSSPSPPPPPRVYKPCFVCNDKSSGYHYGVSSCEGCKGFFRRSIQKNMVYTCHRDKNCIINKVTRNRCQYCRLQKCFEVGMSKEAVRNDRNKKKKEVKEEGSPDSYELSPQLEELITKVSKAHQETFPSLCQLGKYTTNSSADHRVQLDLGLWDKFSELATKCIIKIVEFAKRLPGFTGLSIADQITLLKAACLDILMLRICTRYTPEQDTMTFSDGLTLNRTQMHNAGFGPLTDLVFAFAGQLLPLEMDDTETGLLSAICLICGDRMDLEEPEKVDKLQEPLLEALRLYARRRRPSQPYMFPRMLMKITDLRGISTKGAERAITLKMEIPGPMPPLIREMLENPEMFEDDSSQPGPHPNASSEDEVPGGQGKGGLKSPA
Description: Inverse agonist activity at GAL4 DBD-fused RARgamma LBD (unknown origin) expressed in human HG5LN cells after 18 hrs by luciferase reporter gene assay

The target in data set [4] is T3, Nuclear receptor ROR-alpha (Homo sapiens, UniProt P35398).
T3 sequence (P35398 whole entry): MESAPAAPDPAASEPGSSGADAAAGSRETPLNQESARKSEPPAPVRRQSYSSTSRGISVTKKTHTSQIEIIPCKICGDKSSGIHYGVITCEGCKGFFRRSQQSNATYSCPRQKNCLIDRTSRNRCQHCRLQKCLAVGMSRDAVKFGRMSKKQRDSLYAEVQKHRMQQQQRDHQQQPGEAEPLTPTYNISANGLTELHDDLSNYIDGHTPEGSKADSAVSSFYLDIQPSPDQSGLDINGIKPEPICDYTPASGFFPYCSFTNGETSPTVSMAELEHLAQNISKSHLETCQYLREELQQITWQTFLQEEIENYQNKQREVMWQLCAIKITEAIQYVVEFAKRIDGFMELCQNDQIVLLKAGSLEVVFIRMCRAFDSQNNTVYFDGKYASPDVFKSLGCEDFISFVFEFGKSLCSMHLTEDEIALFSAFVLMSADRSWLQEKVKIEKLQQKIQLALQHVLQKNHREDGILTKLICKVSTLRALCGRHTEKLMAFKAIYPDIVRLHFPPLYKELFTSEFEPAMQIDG
Description: Inverse agonist activity at GAL4 DBD-fused RORalpha LBD (unknown origin) expressed in HG5LN cells after 18 hrs by luciferase reporter gene assay

The conditions of data set [5]: rat, microsomes.
Description: Stability in rat microsomes
The nature of another data set: physchem. The settings on record: buffer, pH 6.5.
Data set [6] is described as follows: in vitro. The settings on record: human, plasma.
Description: Fraction unbound in human plasma at 5 uM after 4 hrs by equilibrium dialysis based LC-MS/MS analysis
Data set [7] can be described thus: in vitro. The settings on record: human, neonatal keratinocytes.
Description: Photocytotoxicity against human neonatal keratinocytes assessed as decrease in cell viability by measuring ratio of IC50 in presence of UV to IC50 in absence of UV after 30 mins by neutral red dye based assay
The nature of data set [8]: in vitro. The settings on record: human, hepatocytes.

Bounds are passed on as bounds.

On to `Cc1cccc(Cl)c1Oc1nn(-c2ccc(C(=O)O)cc2)c2ccc(C(=O)N(C)C)cc12`, for which the IC50 (usually the concentration at which inhibition is half-maximal) in [1] is 150 nM; in data set [2], 120 nM; in data set [3] it was more than 10000 nM; in data set [4], more than 10000 nM. Besides, the Stability entry in data set [5] is listed as “Unstable”. In addition, the logD – broadly, the decadic logarithm of the distribution of all forms, ionised or not, between an organic phase and buffer at a given pH – in “physchem” stood at 1.5. In addition, the fraction unbound (in general, the share of the substance not bound to proteins or other matrix) at 4 h, 5 µM in the data set “in vitro [6]” came to 0.024. In “in vitro [7]”, the selectivity ratio at 0.5 h was found to be 36. The hepatocyte CLint (in general, the capacity of the preparation to metabolise the compound, expressed as a volume cleared per time) at […], 1 µM in the data set “in vitro [8]” was 54 µL/min/1e6 cells.

Values taken from ChEMBL document CHEMBL3867469, “Discovery of phenoxyindazoles and phenylthioindazoles as RORγ inverse agonists” (Bioorg Med Chem Lett, 2016).
